From doi:10.1101/2019.12.17.868638v2 (biorxiv, 2019)

Test system: RlSQase* (sulfoquinovosidase, K375A/K376A SERp variant)
Conditions: 50 mM sodium phosphate, 150 mM NaCl, pH 7.2, 30 °C, 212 nM enzyme

SMILES: O=[N+]([O-])c1ccc(O[C@H]2O[C@H](CS(=O)(=O)O)[C@@H](O)[C@H](O)[C@H]2O)cc1 [PNPSQ]
- Km: 680 ± 250 µM
